Laboratory results taken from US11530229B2, “Cyano cyclobutyl compounds for CBL-B inhibition and uses thereof” (Nurix Therapeutics, Inc., priority 2019, dated 2022).

Test system: syngeneic TC-1 cell tumor
Test: Tumor growth response (partial responders), Cbl-b inhibitor plus cancer vaccine, Biological Example 11
Format: in vivo, C57BL/6 mice
Conditions: significant decrease in tumor volume relative to control mice without Cbl-b inhibitor or vaccine; 10 mice per group
Procedure: In brief, the combination therapy was tested in C57BL/6 mice bearing a syngeneic TC-1 cell tumor. TC-1 cells were derived from primary murine lung cells, which had been transfected with human papillomavirus strain 16 (HPV16) early proteins 6 and 7 (E6 and E7) and an activated human c-Ha-ras oncogene (Lin et al., Cancer Research, 56: 21-26, 1996). Either 2.5×10^4 (first study) or 5.0×10^4 (second study) TC-1 cells (obtained from Johns Hopkins University) were injected subcutaneously into the mid flank of each mouse. Tumors were allowed to grow to 50-100 mm^3 at which time the animals were randomized and treatment was initiated (Day 0). […]
Tumor size was recorded twice a week starting on Day 0 (Day 14 post TC-1 injection) and continued through duration of dosing until humane endpoints were reached between Day 33 and Day 42 (=between Day 47 and Day 56 post TC-1 injection). The level of response was evaluated by comparing tumor growth in the test mice versus the control mice (10 mice per group). In addition, the level of immune activation was assessed by collecting tumors for analysis of tumor infiltrating lymphocytes (TILs) on Day 10 (=Day 24 post TC-1 injection) in test and control mice (6 mice per group). […]

Cc1cc(C(=O)Nc2cccc(C3(Cc4nncn4C)COC3)c2)nc(C2CC2)n1 [Compound 60]
partial responders: 0/10
